Source: US20190302100A1, “METHOD FOR PREPARING LIVER PROGENITOR CELLS” (National Cancer Center, priority 2016, published 2019)

What was measured:
[1] = test system: CYP1A2; test: Activity of metabolic enzyme CYP1A2 (Luciferin 1A2 kit) in hepatocytes taken out from transplanted cDNA-uPA/SCID mice; format: cell-based, human
Excerpt: After that, cDNA-uPA/SCID mice (2 to 4 M, Male; manufactured by PhoenixBio Co., Inc.) were subjected to laparotomy under isoflurane anesthesia, the spleen was exposed, 0.5×10^5 to 2×10^6 liver progenitor cells per mouse were implanted, and then the abdomen was sutured. On day 73 after implantation, the liver was removed and perfused. Hepatocytes were separated, and cultured for 4 days on 24-well collagen plates (manufactured by IWAKI) at 4×10^5 cells/well using 2% FBS-SHM medium.
(§1) For the hepatocytes taken out from the mice, the activity of the metabolic enzyme CYP1A2 was measured using methanol (MeOH, at a concentration of 1%) and omeprazole (OMP, 50 μM). […] The activities of these metabolic enzymes were measured with Luciferin 1A2 kit and Luciferin-IPA kit from Promega, respectively.

[2] = test system: CYP3A4
Experimental: On day 73 after implantation, the liver was removed and perfused. Hepatocytes were separated, and cultured for 4 days on 24-well collagen plates (manufactured by IWAKI) at 4×10^5 cells/well using 2% FBS-SHM medium.
as §1

SMILES | CYP1A2 induction ([1]; Example 14: cells from donor 10 M, omeprazole 50 μM vs methanol 1%) | CYP1A2 induction ([1]; Example 15: cells from donor 8 M, as in Example 14) | CYP3A4 induction [2]
COc1ccc2[nH]c([S+]([O-])Cc3ncc(C)c(OC)c3C)nc2c1 (stereo not drawn) [omeprazole] | induced | induced | 
CCC1(c2ccccc2)C(=O)NC(=O)NC1=O [phenobarbital] |  |  | induced
